The source of these data is patent publication US20050069587A1, “Novel drug compositions and dosage forms of topiramate” (priority 2003, published 2005).

Molecules are shown by their SMILES. ≈ marks a conversion by molar mass, not a printed value. Read-outs that look alike come from different tables or passages of the source.

Data set [1] can be described thus: solubility of topiramate in de-ionized water and aqueous surfactant solutions. To be noted: for solubility: water, thermodynamic from solid. Format: physicochemical. How it is done:
As defined herein, the solubility of a pharmaceutical agent is determined by adding the pharmaceutical agent to stirred or agitated de-ionized water maintained in a constant temperature bath at a temperature of 37° C. until no more pharmaceutical agent dissolves. The resulting solution saturated with the pharmaceutical agent is then filtered, typically under pressure through a 0.8-micron Millipore filter, and the concentration of the pharmaceutical agent in the solution is measured by any appropriate analytical method including gravimetric, ultraviolet spectrophometry, chromatography, and the like. The solubility of the pharmaceutical agent is measured at equilibrium.
A drug composition of the present invention was prepared as follows. Aqueous solutions of five surfactants were prepared. The selected surfactants were four grades of ethylene oxide/propylene oxide/ethylene oxide (LUTROL grades F127, F87, F 108, and F68) and PEG-40 stearate (MYRJ 52). Solutions were made at concentrations of 1, 5, and 15 weight percent. The aqueous surfactant blends solutions were chilled as necessary to promote complete dissolution of the surfactant prior to drug solubility studies.
The aqueous surfactant solutions were equilibrated to constant temperature in a 37° C. water bath. Then, neat topiramate drug was added slowly with stirring in approximately 10 mg increments to the surfactant solutions until no more drug dissolved. A control sample of drug dissolved in de-ionized water without surfactant was included for comparison purposes. The resulting saturated solutions of drug were filtered through 0.8 micron filters and analyzed for drug concentration by refractive index chromatography. The resulting solubility values were plotted as a function of both surfactant concentration and the hydrophilic-lipophilic balance value of each surfactant. FIG. 6 was constructed from the solubility values obtained and HLB data for each surfactant utilized.

The conditions of data set [2]: room temperature; cited from earlier work.
For data set [3] the following is noted: cited from earlier work.

For orientation: solubility means the concentration that dissolves in the medium under given conditions.

In the case of `CC1(C)O[C@@H]2[C@@H](CO[C@@]3(COS(N)(=O)=O)OC(C)(C)O[C@@H]23)O1` [topiramate, 2,3:4,5-bis-O-(1-methylethylidene)-β-D-fructopyranose sulfamate], in data set [1] (LUTROL F127, F87, F108, F68, MYRJ 52 at 1, 5, 15 weight percent, 37° C.), the “drug solubility in the presence of each surfactant compared to the control” value was “higher”. Also, the solubility was 13 mg/mL (≈ 38.3 mM) in data set [1] (de-ionized water without surfactant, 37° C., read-out: solubility in de-ionized water without surfactant (control)); around 12 mg/mL (≈ 35.4 mM) in data set [1] (de-ionized water, 37 °C, read-out: solubility in de-ionized water); 9.8 to 13 mg/mL (≈ 28.9 to 38.3 mM) in data set [1] (neat drug, stated range, read-out: solubility of neat topiramate). In addition, in data set [2], the “solubility of topiramate in water” value was “about 9.8 mg/ml”. Further, in data set [3] (in vivo), the “mean elimination half life” value is given as “about 21 hours”. Besides, the “time to peak plasma drug concentrations” value in data set [3] (oral administration of an immediate release dosage form) is listed as “approximately 2 hours”.
